How the values were obtained:
Experiment in all cases: Peptidase activity detection on Columbia agar containing substrate
Assay type in all cases: cell-based
[1] = test system: Staphylococcus aureus NCTC 11939; set-up: key: − = no fluorescence detected; e = trace of fluorescence; +/− = weak fluorescence; + = medium fluorescence; ++ = strong fluorescence; NG = No Growth; conditions: Staphylococcus aureus (MRSA) NCTC 11939; substrate 100 mg/l, 24 hours at 37° C., UV 360-365 nm
Description: (§1) 40 mg of each substrate are dissolved in 4 ml of dimethylformamide (DMF). This solution is completely taken up in 400 ml of Columbia agar autoclaved beforehand and kept molten at 50° C. The final concentration for each substrate is therefore 100 mg/l. Each of the media is distributed into 90 mm Petri dishes in a proportion of 20 ml per dish.
(§2) 18 microorganism strains derived from collections and belonging to various species of bacteria and of yeasts are inoculated onto these media by semi-quantitative isolation of 10 μl of a suspension at 0.5 McFarland diluted to 1/20. The media are incubated for 24 hours at 37° C., and then the colonies formed are examined visually under UV illumination at 360-365 nm.

[2] = test system: Bacillus subtilis NCTC 9372; set-up: key: − = no fluorescence detected; e = trace of fluorescence; +/− = weak fluorescence; + = medium fluorescence; ++ = strong fluorescence; NG = No Growth; conditions: substrate 100 mg/l, 24 hours at 37° C., UV 360-365 nm
Description: as §1, §2

[3] = test system: Candida glabrata NCPF3943; set-up: key: − = no fluorescence detected; e = trace of fluorescence; +/− = weak fluorescence; + = medium fluorescence; ++ = strong fluorescence; NG = No Growth; conditions: substrate 100 mg/l, 24 hours at 37° C., UV 360-365 nm
Description: as §1, §2

[4] = test system: Enterococcus faecalis NCTC 775; set-up: key: − = no fluorescence detected; e = trace of fluorescence; +/− = weak fluorescence; + = medium fluorescence; ++ = strong fluorescence; NG = No Growth; conditions: substrate 100 mg/l, 24 hours at 37° C., UV 360-365 nm
Description: as §1, §2

[5] = test system: Escherichia coli NCTC 10418; set-up: key: − = no fluorescence detected; e = trace of fluorescence; +/− = weak fluorescence; + = medium fluorescence; ++ = strong fluorescence; NG = No Growth; conditions: substrate 100 mg/l, 24 hours at 37° C., UV 360-365 nm
Description: as §1, §2

[6] = test system: Candida albicans ATCC 90028; set-up: key: − = no fluorescence detected; e = trace of fluorescence; +/− = weak fluorescence; + = medium fluorescence; ++ = strong fluorescence; NG = No Growth; conditions: substrate 100 mg/l, 24 hours at 37° C., UV 360-365 nm
Description: as §1, §2

[7] = test system: Staphylococcus aureus NCTC 6571; set-up: key: − = no fluorescence detected; e = trace of fluorescence; +/− = weak fluorescence; + = medium fluorescence; ++ = strong fluorescence; NG = No Growth; conditions: substrate 100 mg/l, 24 hours at 37° C., UV 360-365 nm
Description: as §1, §2

[8] = test system: Salmonella Typhimurium NCTC 74; set-up: key: − = no fluorescence detected; e = trace of fluorescence; +/− = weak fluorescence; + = medium fluorescence; ++ = strong fluorescence; NG = No Growth; conditions: substrate 100 mg/l, 24 hours at 37° C., UV 360-365 nm
Description: as §1, §2

[9] = test system: Enterococcus faecium NCTC 11047; set-up: key: − = no fluorescence detected; e = trace of fluorescence; +/− = weak fluorescence; + = medium fluorescence; ++ = strong fluorescence; NG = No Growth; conditions: Enterococcus faecium NCTC 11047 (Table 2); substrate 100 mg/l, 24 hours at 37° C., UV 360-365 nm
Description: as §1, §2

[10] = test system: Listeria monocytogenes NCTC 11994; set-up: key: − = no fluorescence detected; e = trace of fluorescence; +/− = weak fluorescence; + = medium fluorescence; ++ = strong fluorescence; NG = No Growth; conditions: substrate 100 mg/l, 24 hours at 37° C., UV 360-365 nm
Description: as §1, §2

[11] = test system: Providencia rettgeri NCTC 7475; set-up: key: − = no fluorescence detected; e = trace of fluorescence; +/− = weak fluorescence; + = medium fluorescence; ++ = strong fluorescence; NG = No Growth; conditions: substrate 100 mg/l, 24 hours at 37° C., UV 360-365 nm
Description: as §1, §2

[12] = test system: Streptococcus pyogenes NCTC 8306; set-up: key: − = no fluorescence detected; e = trace of fluorescence; +/− = weak fluorescence; + = medium fluorescence; ++ = strong fluorescence; NG = No Growth; conditions: substrate 100 mg/l, 24 hours at 37° C., UV 360-365 nm
Description: as §1, §2

[13] = test system: Staphylococcus epidermidis NCTC 11047; set-up: key: − = no fluorescence detected; e = trace of fluorescence; +/− = weak fluorescence; + = medium fluorescence; ++ = strong fluorescence; NG = No Growth; conditions: substrate 100 mg/l, 24 hours at 37° C., UV 360-365 nm
Description: as §1, §2

[14] = test system: Yersinia enterocolitica NCTC 11176; set-up: key: − = no fluorescence detected; e = trace of fluorescence; +/− = weak fluorescence; + = medium fluorescence; ++ = strong fluorescence; NG = No Growth; conditions: substrate 100 mg/l, 24 hours at 37° C., UV 360-365 nm
Description: as §1, §2

[15] = test system: Enterobacter cloacae NCTC 11936; set-up: key: − = no fluorescence detected; e = trace of fluorescence; +/− = weak fluorescence; + = medium fluorescence; ++ = strong fluorescence; NG = No Growth; conditions: substrate 100 mg/l, 24 hours at 37° C., UV 360-365 nm
Description: as §1, §2

[16] = test system: Serratia marcescens NCTC 10211; set-up: key: − = no fluorescence detected; e = trace of fluorescence; +/− = weak fluorescence; + = medium fluorescence; ++ = strong fluorescence; NG = No Growth; conditions: substrate 100 mg/l, 24 hours at 37° C., UV 360-365 nm
Description: as §1, §2

[17] = test system: Gram-positive bacterial strains and the yeasts; conditions: all the Gram-positive bacterial strains and the yeasts
Description: as §1, §2

[18] = test system: Burkholderia cepacia 1222; set-up: key to fluorescence intensity: − = no fluorescence detected; e = trace of fluorescence; +/− = weak fluorescence; + = medium fluorescence; ++ = strong fluorescence; NG = No Growth; conditions: Burkholderia cepacia 1222; substrate 100 mg/l, 24 hours at 37° C., UV 360-365 nm
Description: as §1, §2

[19] = test system: Pseudomonas aeruginosa NCTC 10662; set-up: key to fluorescence intensity: − = no fluorescence detected; e = trace of fluorescence; +/− = weak fluorescence; + = medium fluorescence; ++ = strong fluorescence; NG = No Growth; conditions: Pseudomonas aeruginosa NCTC 10662; substrate 100 mg/l, 24 hours at 37° C., UV 360-365 nm
Description: as §1, §2

[20] = test system: Enterococcus faecium NCTC 7171; set-up: key: − = no fluorescence detected; e = trace of fluorescence; +/− = weak fluorescence; + = medium fluorescence; ++ = strong fluorescence; NG = No Growth; conditions: Enterococcus faecium NCTC 7171 (Table 3); substrate 100 mg/l, 24 hours at 37° C., UV 360-365 nm
Description: as §1, §2

[21] = test system: Morganella morganii 462403 (wild); set-up: key: − = no fluorescence detected; e = trace of fluorescence; +/− = weak fluorescence; + = medium fluorescence; ++ = strong fluorescence; NG = No Growth; conditions: substrate 100 mg/l, 24 hours at 37° C., UV 360-365 nm
Description: as §1, §2

[22] = test system: Citrobacter freundii 46262 (wild); set-up: key: − = no fluorescence detected; e = trace of fluorescence; +/− = weak fluorescence; + = medium fluorescence; ++ = strong fluorescence; NG = No Growth; conditions: substrate 100 mg/l, 24 hours at 37° C., UV 360-365 nm
Description: as §1, §2

[23] = test system: Gram-negative bacterial strains; conditions: all the Gram-negative bacterial strains with the exception of the Burkholderia cepacia strain
Description: as §1, §2

[24] = test system: Staphylococcus aureus strains; conditions: the two Staphylococcus aureus strains
Description: as §1, §2

enterococcal strains = conditions: the two enterococcal strains
Description: as §1, §2

Row | SMILES | fluorescence intensity [1] | fluorescence intensity [2] | fluorescence intensity [3] | fluorescence intensity [4] | fluorescence intensity [5] | fluorescence intensity [6] | fluorescence intensity [7] | fluorescence intensity [8] | fluorescence intensity [9] | fluorescence intensity [10] | fluorescence intensity [11] | fluorescence intensity [12] | fluorescence intensity [13] | fluorescence intensity [14] | fluorescence intensity [15] | fluorescence intensity [16] | fluorescence intensity [18] | fluorescence intensity [19] | further results
1 | C[C@H](N)C(=O)Nc1ccccc1-c1nc2ccccc2s1 [Substrate 17] | NG | NG | NG | NG | + | NG | NG | NG | NG | NG | + | NG | NG | + | + | + | + | + | toxicity (growth inhibition, text) [17]: inhibited
2 | C[C@H](N)C(=O)Nc1cc2c(cc1-c1nc3ccccc3n1CCc1ccccc1)OCO2 [Substrate 16] | − | − | − | − | ++ | − | − | ++ |  | − | ++ | − | − | − | ++ | ++ | ++ | − | fluorescence intensity [20]: −; fluorescence intensity [21]: +; fluorescence intensity [22]: ++
3 | C[C@H](N)C(=O)Nc1ccccc1-c1nc2ccccc2o1 [Substrate 1] | + | − | − | +/− | ++^1 | − | + | ++ | +/− | +/− | ++ | − | − | ++ | ++ | ++ | − | ++ | fluorescence produced [23]: strong blue fluorescence; fluorescence produced [24]: medium green fluorescence; fluorescence produced (enterococcal strains): weak blue fluorescence
